Experimental data reported in patent US20070021509A1, “Phosphate transport inhibitors” (priority 2001, published 2007).

These molecules were tested on phosphate uptake by rabbit intestinal Brush Border Membrane Vesicles (BBMV) (assay: 33PO4 uptake in rabbit intestinal BBMV (HTS), phosphate transporter inhibition in vitro). Conditions: Table 1, phosphate uptake, read-out: IC50.
Format: biochemical
Protocol: The following example outlines the procedures required for in vitro measurement of the inhibition of phosphate uptake by rabbit intestinal Brush Border Membrane Vesicles (BBMV).
Rabbit Intestinal Brush Border Membrane Vesicles (BBMV) were isolated from mucosal scrapings of the upper small intestine (duodenum) of male New Zealand White rabbits. The scrapings were divided into 2 g aliquots in cryopreservation vials, frozen in liquid nitrogen, and stored at −80° C.
The following procedure was performed for each 2 g sample of BBMV mucosal scraping. Buffer volumes and container sizes were adjusted appropriately for the number of 2 g samples used. The entire preparation was performed on ice, unless otherwise stated.
Mucosal scrapings (2 g per tube) were thawed in a 37° C. water bath for 3 minutes and then placed on ice. The scrapings were suspended with a total of 7.5 ml of 300 MET, and transferred to a 250 mL Corning tube on ice. To the suspension was added 30 mL cold (4° C.) deionized water (dH20). The suspension was homogenized with a tissue homogenizer (Polytron) on high speed for 2 minutes. A stir bar and MgCl2 (81.3 mg) was added. The suspension was mixed well by inverting the closed tube. The suspension was stirred on ice, ensuring that a good vortex is achieved with the stir bar, for 40 minutes. The suspension was transferred to a chilled centrifuge tube and spun at 4000×g for 15 minutes. The supernatant was transferred to a new chilled centrifuge tube and spun at 32000×g for 30 minutes. The supernatant was discarded and the pellet was re-suspended with 34 mL cold 60 MET. The suspension was homogenized with a Dounce homogenizer with 8 strokes. The suspension was transferred to a fresh 250 mL Corning tube. A stir bar and 69.1 mg MgCl2 were added. The suspension was stirred well on ice for 10 minutes. The suspension was transferred to a chilled centrifuge tube and spun at 4000×g for 15 minutes. The supernatant was transferred to a new chilled centrifuge tube and spun at 32000×g for 30 minutes. The supernatant was discarded. At this stage, the preparation could be continued or this pellet (P4) could be frozen in liquid nitrogen and stored at −80° C. When needed, this pellet could be allowed to thaw at room temperature for 5 minutes. Continuing the preparation, the pellet was re-suspended with 34 mL cold 280 MH. The suspension was homogenized in a Dounce homogenize with 8 strokes. The suspension was transferred to a new chilled centrifuge tube and spun at 32000×g for 30 minutes. The supernatant was discarded. To the pellet was added 500 μL 280 MH and the pellet was re-suspended very carefully with a 1 mL tuberculin syringe with a 25-gauge needle with care not to create bubbles. Once the entire pellet was suspended, the suspension was transferred to a chilled 1.5 mL microfuge tube. The suspension was evenly dispersed by bringing the suspension up into the syringe through the 25-gauge needle, and back out again 8 times with care not to create bubbles. The total protein concentration was determined by performing a Bradford Protein Assay. Using that value, the BBMV were diluted with 280 MH to reach approximately 0.5-2.0 mg/mL. The solution was used as soon as possible for uptake studies.
The following experiment was performed using a Beckman Multimek 96-tip robotic pipettor. The following outlines the preparation required to screen one 96-well plate of compounds. However, multiple plates could be screened in one experiment.
To the “Uptake Buffers” was added ^33PO4 to reach 200,000 CPM/19 μL. The buffer solutions were stored at room temperature. The following control solutions were prepared and placed into appropriate wells of a polypropylene, 96-well V-bottom plate (“Hot Stock Plate”):
a. Maximum activity (MAX)−Na Uptake buffer+^33PO4 at 200,000 CPM/19 μL
b. Midline activity (MID)−MAX+100 μM KH2PO4, pH 7.4
c. Minimum activity (MIN)− K Uptake buffer+^33PO4 at 200,000 CPM/19 μL

SMILES	IC50
O=C(O)c1cc(Br)ccc1NS(=O)(=O)c1ccc(-c2ccccc2)cc1 [Compound 1]	< 50 µM
O=C(O)c1cc(Br)ccc1NS(=O)(=O)c1ccc(OC(F)(F)F)cc1 [Compound 2]	< 50 µM
O=C(O)c1cc(Br)ccc1NS(=O)(=O)c1cc(C(F)(F)F)cc(C(F)(F)F)c1 [Compound 3]	51 to 100 µM
O=C(O)c1cc(Br)ccc1NS(=O)(=O)c1cc(Cl)c(Cl)cc1Cl [Compound 4]	51 to 100 µM
O=C(O)c1cc(Br)ccc1NS(=O)(=O)c1ccc([N+](=O)[O-])cc1 [Compound 5]	51 to 100 µM
Cc1cc(C)c(S(=O)(=O)Nc2ccc(Br)cc2C(=O)O)c(C)c1 [Compound 6]	51 to 100 µM
O=C(O)c1cc(Br)ccc1NS(=O)(=O)c1ccc(C(F)(F)F)cc1 [Compound 7]	51 to 100 µM
O=C(O)c1cc(Br)ccc1NS(=O)(=O)c1ccc(-c2ccccc2)cc1 [Compound 8]	51 to 100 µM
Cc1ccc(S(=O)(=O)Nc2ccc(Br)cc2C(=O)O)cc1[N+](=O)[O-] [Compound 9]	51 to 100 µM
O=C(O)c1cc(Br)ccc1NS(=O)(=O)c1cccc(Cl)c1 [Compound 10]	101 to 500 µM
O=C(O)c1cc(Br)ccc1NS(=O)(=O)c1ccc(Oc2ccccc2)cc1 [Compound 11]	101 to 500 µM
O=C(O)c1cc(Br)ccc1NS(=O)(=O)c1ccc(Cl)c([N+](=O)[O-])c1 [Compound 12]	101 to 500 µM
O=C(O)c1cc(Br)ccc1NS(=O)(=O)c1cccc([N+](=O)[O-])c1 [Compound 13]	101 to 500 µM
O=C(O)c1cc(Br)ccc1NS(=O)(=O)c1ccc(OC(F)(F)F)cc1 [Compound 14]	101 to 500 µM
O=C(O)c1cc(Br)ccc1NS(=O)(=O)c1ccc(Cl)c([N+](=O)[O-])c1 [Compound 15]	101 to 500 µM
O=C(O)c1cc(Br)ccc1NS(=O)(=O)c1cccc(C(F)(F)F)c1 [Compound 16]	101 to 500 µM
O=C(O)c1cc(Br)ccc1NS(=O)(=O)c1ccc(Br)cc1 [Compound 18]	101 to 500 µM
O=C(O)c1cc(Br)ccc1NS(=O)(=O)c1cccc2ccccc12 [Compound 19]	101 to 500 µM
Cc1ccc(S(=O)(=O)Nc2ccc(Br)cc2C(=O)O)cc1[N+](=O)[O-] [Compound 20]	101 to 500 µM
O=C(O)c1cc(Br)ccc1NS(=O)(=O)c1ccc(I)cc1 [Compound 24]	101 to 500 µM
O=C(O)c1cc(Br)ccc1NS(=O)(=O)c1ccccc1F [Compound 25]	101 to 500 µM
O=C(O)c1cc(Br)ccc1NS(=O)(=O)c1ccccc1C(F)(F)F [Compound 26]	101 to 500 µM
O=C(O)c1cc(Br)ccc1NS(=O)(=O)c1ccc(Cl)cc1 [Compound 27]	101 to 500 µM
CCCCCc1ccc(S(=O)(=O)Nc2ccc(Br)cc2C(=O)O)cc1 [Compound 28]	101 to 500 µM
O=C(O)c1cc(Br)ccc1NS(=O)(=O)c1ccc(Cl)cc1 [Compound 29]	101 to 500 µM
C=Cc1ccc(S(=O)(=O)Nc2ccc(Br)cc2C(=O)O)cc1 [Compound 30]	101 to 500 µM
O=C(O)c1cc(Br)ccc1NS(=O)(=O)c1ccccc1Cl [Compound 31]	101 to 500 µM
O=C(O)c1cc(Br)ccc1NS(=O)(=O)c1ccc([N+](=O)[O-])cc1 [Compound 33]	101 to 500 µM

Results, then the molecule that gave them:

IC50	SMILES
101 to 500 µM	O=C(O)c1cc(Br)ccc1NS(=O)(=O)c1cccc(F)c1 [Compound 34]
101 to 500 µM	COc1ccc(OC)c(S(=O)(=O)Nc2ccc(Br)cc2C(=O)O)c1 [Compound 35]
501 to 1000 µM	COc1ccc(S(=O)(=O)Nc2ccc(Br)cc2C(=O)O)cc1 [Compound 37]
1000 to 1500 µM	O=C(O)c1cc(Br)ccc1NS(=O)(=O)c1ccccc1[N+](=O)[O-] [Compound 38]
> 1500 µM	O=C(O)c1cc(Br)ccc1NS(=O)(=O)c1ccc(Cl)cc1 [Compound 39]
> 1500 µM	O=C(O)c1cc(Br)ccc1NS(=O)(=O)c1ccc(Cl)c([N+](=O)[O-])c1 [Compound 40]
> 1500 µM	O=C(O)c1cc(Br)ccc1NS(=O)(=O)c1ccc(OC(F)(F)F)cc1 [Compound 41]
> 1500 µM	COc1ccc(S(=O)(=O)Nc2ccc(Br)cc2C(=O)O)cc1[N+](=O)[O-] [Compound 42]
> 1500 µM	O=C(O)c1cc(Br)ccc1NS(=O)(=O)c1ccc(Cl)cc1 [Compound 43]
> 1500 µM	O=C(O)c1cc(Br)ccc1NS(=O)(=O)c1ccc(O)c([N+](=O)[O-])c1 [Compound 44]
> 1500 µM	O=C(O)c1cc(Br)ccc1NS(=O)(=O)c1ccc(Cl)cc1 [Compound 46]
> 1500 µM	O=C(O)c1ccc(S(=O)(=O)Nc2ccc(Br)cc2C(=O)O)cc1 [Compound 47]
> 1500 µM	O=C(O)c1cc(Br)ccc1NS(=O)(=O)c1ccccc1[N+](=O)[O-] [Compound 48]

Same assay, conditions: Table 2, phosphate uptake, read-out: IC50

IC50	SMILES
< 50 µM	O=C(Nc1ccccc1Cl)c1cc(Br)ccc1NS(=O)(=O)c1ccc(OC(F)(F)F)cc1 [Compound 50]
< 50 µM	O=C(Nc1ccc(Br)cc1)c1cc(Br)ccc1NS(=O)(=O)c1ccc(OC(F)(F)F)cc1 [Compound 51]
< 50 µM	O=C(NCc1ccc(F)cc1)c1cc(Br)ccc1NS(=O)(=O)c1ccc(OC(F)(F)F)cc1 [Compound 52]
< 50 µM	O=C(NCc1ccc(Cl)cc1)c1cc(Br)ccc1NS(=O)(=O)c1ccc(OC(F)(F)F)cc1 [Compound 53]
< 50 µM	COc1cccc(CNC(=O)c2cc(Br)ccc2NS(=O)(=O)c2ccc(OC(F)(F)F)cc2)c1 [Compound 54]
< 50 µM	O=C(NCc1ccccc1C(F)(F)F)c1cc(Br)ccc1NS(=O)(=O)c1ccc(OC(F)(F)F)cc1 [Compound 55]
51 to 100 µM	COc1ccc(NC(=O)c2cc(Br)ccc2NS(=O)(=O)c2ccc(OC(F)(F)F)cc2)cc1 [Compound 56]
51 to 100 µM	Cc1ccc(NC(=O)c2cc(Br)ccc2NS(=O)(=O)c2ccc(OC(F)(F)F)cc2)cc1 [Compound 57]
51 to 100 µM	Cc1cccc(CNC(=O)c2cc(Br)ccc2NS(=O)(=O)c2ccc(OC(F)(F)F)cc2)c1 [Compound 58]
51 to 100 µM	O=C(Nc1ccc(Cl)c(Cl)c1)c1cc(Br)ccc1NS(=O)(=O)c1ccc(OC(F)(F)F)cc1 [Compound 59]
51 to 100 µM	O=C(NCc1ccc(OC(F)(F)F)cc1)c1cc(Br)ccc1NS(=O)(=O)c1ccc(OC(F)(F)F)cc1 [Compound 60]
51 to 100 µM	O=C(NCc1ccccc1OC(F)(F)F)c1cc(Br)ccc1NS(=O)(=O)c1ccc(OC(F)(F)F)cc1 [Compound 61]
51 to 100 µM	O=C(Nc1ccccc1Br)c1cc(Br)ccc1NS(=O)(=O)c1ccc(OC(F)(F)F)cc1 [Compound 62]
51 to 100 µM	O=C(NCc1ccc(Cl)c(Cl)c1)c1cc(Br)ccc1NS(=O)(=O)c1ccc(OC(F)(F)F)cc1 [Compound 63]
51 to 100 µM	O=C(NCc1ccc(F)cc1F)c1cc(Br)ccc1NS(=O)(=O)c1ccc(OC(F)(F)F)cc1 [Compound 64]
51 to 100 µM	CSc1ccc(NC(=O)c2cc(Br)ccc2NS(=O)(=O)c2ccc(OC(F)(F)F)cc2)cc1 [Compound 65]
51 to 100 µM	O=C(NCc1cc(F)ccc1F)c1cc(Br)ccc1NS(=O)(=O)c1ccc(OC(F)(F)F)cc1 [Compound 66]
51 to 100 µM	Cc1ccccc1CNC(=O)c1cc(Br)ccc1NS(=O)(=O)c1ccc(OC(F)(F)F)cc1 [Compound 67]
101 to 500 µM	O=C(Nc1ccccc1-n1cccc1)c1cc(Br)ccc1NS(=O)(=O)c1ccc(OC(F)(F)F)cc1 [Compound 68]
101 to 500 µM	O=C(NCc1cc(C(F)(F)F)cc(C(F)(F)F)c1)c1cc(Br)ccc1NS(=O)(=O)c1ccc(OC(F)(F)F)cc1 [Compound 69]
